Data as given in PubChem BioAssay AID2060885 (Molecular Pharmacology Branch, DTP, NCI, 2025).
pIC50: −log10 of the molar value.

Test system: NCI-H23 complex spheroids with HUVEC/MSC, viability
Experiment: Anticancer human tumor NCI-H23 cell line growth inhibition [RAS];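 also: spheroids exposed to compound for 7 days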;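 as to viability, T/C: 100% = DMSO vehicle control viability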
Details: for pIC50: curve of first compound; for viability, T/C: stronger effect = lower value
Summary of the method: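 Tumour cells grown as complex spheroids with HUVEC endothelial cells and mesenchymal stem cells, treated with RAS pathway inhibitor combinations. Each agent spans half-log steps from near clinical Cmax, or 10 microM where Cmax is unknown.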

[1] = second compound 0.000949 µM, first compound 0.0316 µM
[2] = second compound 0.000949 µM, first compound 0.1 µM
[3] = second compound 0.000949 µM, first compound 0.316 µM
[4] = second compound 0.000949 µM, first compound 1 µM
[5] = second compound 0.000949 µM, first compound 3.16 µM
[6] = second compound 0.000949 µM, first compound 10 µM
[7] = second compound 0.003 µM, first compound 0.0316 µM
[8] = second compound 0.003 µM, first compound 0.1 µM
[9] = second compound 0.003 µM, first compound 0.316 µM
[10] = second compound 0.003 µM, first compound 1 µM
[11] = second compound 0.003 µM, first compound 3.16 µM
[12] = second compound 0.003 µM, first compound 10 µM
[13] = second compound 0.00949 µM, first compound 0.0316 µM
[14] = second compound 0.00949 µM, first compound 0.1 µM
[15] = second compound 0.00949 µM, first compound 0.316 µM
[16] = second compound 0.00949 µM, first compound 1 µM
[17] = second compound 0.00949 µM, first compound 3.16 µM
[18] = second compound 0.00949 µM, first compound 10 µM
[19] = second compound 0.03 µM, first compound 0.0316 µM
[20] = second compound 0.03 µM, first compound 0.1 µM
[21] = second compound 0.03 µM, first compound 0.316 µM
[22] = second compound 0.03 µM, first compound 1 µM
[23] = second compound 0.03 µM, first compound 3.16 µM
[24] = second compound 0.03 µM, first compound 10 µM
[25] = second compound 0.0949 µM, first compound 0.0316 µM
[26] = second compound 0.0949 µM, first compound 0.1 µM
[27] = second compound 0.0949 µM, first compound 0.316 µM
[28] = second compound 0.0949 µM, first compound 1 µM
[29] = second compound 0.0949 µM, first compound 3.16 µM
[30] = second compound 0.0949 µM, first compound 10 µM
[31] = second compound 0.3 µM, first compound 0.0316 µM
[32] = second compound 0.3 µM, first compound 0.1 µM
[33] = second compound 0.3 µM, first compound 0.316 µM
[34] = second compound 0.3 µM, first compound 1 µM
[35] = second compound 0.3 µM, first compound 3.16 µM
[36] = second compound 0.3 µM, first compound 10 µM

In the case of `CC(=O)OC12COC1CC(O)C1(C)C(=O)C(O)C3=C(C)C(OC(=O)C(O)C(NC(=O)OC(C)(C)C)c4ccccc4)CC(O)(C(OC(=O)c4ccccc4)C21)C3(C)C` (stereo unspecified) + CCn1c(-c2cccnc2C(C)OC)c2c3cc(ccc31)N1CCOC(CC(NC(=O)C(C(C)C)N(C)C(=O)C3(F)CCN(C(=O)C#CC(C)(C)N(C)C)CC3)C(=O)N3CCCC(N3)C(=O)OCC(C)(C)C2)C1, the pIC50 (second compound 0.000949 µM) was > 7.50, the pIC50 (second compound 0.003 µM) was > 7.50 and the pIC50 (second compound 0.00949 µM) was > 7.50. The pIC50 (second compound 0.03 µM) was > 7.50, the pIC50 (second compound 0.0949 µM) was > 7.50 and the pIC50 (second compound 0.3 µM) was > 7.50. It also gave a viability, T/C [1] of 10.4%, a viability, T/C [2] of 12.4% and a viability, T/C [3] of 9.29%. The viability, T/C [4] was 12.5%, the viability, T/C [5] was 17.6% and the viability, T/C [6] was 17.5%. The viability, T/C [7] was 11.3%, the viability, T/C [8] was 10.6% and the viability, T/C [9] was 10.2%. The viability, T/C [10] was 11.5%, the viability, T/C [11] was 17% and the viability, T/C [12] was 14.2%. For the same molecule, the viability, T/C [13] was 9.65%, the viability, T/C [14] was 8.65% and the viability, T/C [15] was 11.5%. For the same molecule, the viability, T/C [16] was 11%, the viability, T/C [17] was 12.8% and the viability, T/C [18] was 15.8%. For the same molecule, the viability, T/C [19] was 9.84%, the viability, T/C [20] was 8.29% and the viability, T/C [21] was 10.2%. It also gave a viability, T/C [22] of 9.41%, a viability, T/C [23] of 11.5% and a viability, T/C [24] of 16.5%. For the same molecule, the viability, T/C [25] was 8.35%, the viability, T/C [26] was 8.9% and the viability, T/C [27] was 8.97%. It also gave a viability, T/C [28] of 9.36%, a viability, T/C [29] of 9.42% and a viability, T/C [30] of 16.1%. For the same molecule, the viability, T/C [31] was 6.76%, the viability, T/C [32] was 6.43% and the viability, T/C [33] was 7.66%. It also gave a viability, T/C [34] of 8.04%, a viability, T/C [35] of 9.25% and a viability, T/C [36] of 12.2%.
For `NC1c2ccccc2OC12CCN(c1cnc3c(N4CCCc5ncccc54)n[nH]c3n1)CC2` (stereo unspecified) + CCn1c(-c2cccnc2C(C)OC)c2c3cc(ccc31)N1CCOC(CC(NC(=O)C(C(C)C)N(C)C(=O)C3(F)CCN(C(=O)C#CC(C)(C)N(C)C)CC3)C(=O)N3CCCC(N3)C(=O)OCC(C)(C)C2)C1, the pIC50 (second compound 0.000949 µM) was > 7.50, the pIC50 (second compound 0.003 µM) was > 7.50 and the pIC50 (second compound 0.00949 µM) was > 7.50. For the same molecule, the pIC50 (second compound 0.03 µM) was > 7.50, the pIC50 (second compound 0.0949 µM) was > 7.50 and the pIC50 (second compound 0.3 µM) was > 7.50. For the same molecule, the viability, T/C [1] was 19.7%, the viability, T/C [2] was 16.4% and the viability, T/C [3] was 10.6%. For the same molecule, the viability, T/C [4] was 9.5%, the viability, T/C [5] was 7.93% and the viability, T/C [6] was 5.17%. The viability, T/C [7] was 20.7%, the viability, T/C [8] was 15.8% and the viability, T/C [9] was 11.7%. The viability, T/C [10] was 8.99%, the viability, T/C [11] was 6.81% and the viability, T/C [12] was 5.13%. For the same molecule, the viability, T/C [13] was 18.1%, the viability, T/C [14] was 15% and the viability, T/C [15] was 11.4%. For the same molecule, the viability, T/C [16] was 9.87%, the viability, T/C [17] was 5.94% and the viability, T/C [18] was 5.23%. It also gave a viability, T/C [19] of 17.8%, a viability, T/C [20] of 14.9% and a viability, T/C [21] of 11.8%. For the same molecule, the viability, T/C [22] was 8.83%, the viability, T/C [23] was 5.09% and the viability, T/C [24] was 5.86%. The viability, T/C [25] was 15%, the viability, T/C [26] was 12.7% and the viability, T/C [27] was 10.3%. It also gave a viability, T/C [28] of 7.47%, a viability, T/C [29] of 5.66% and a viability, T/C [30] of 5.23%. It also gave a viability, T/C [31] of 16.5%, a viability, T/C [32] of 11.5% and a viability, T/C [33] of 9.55%. For the same molecule, the viability, T/C [34] was 6.6%, the viability, T/C [35] was 6.48% and the viability, T/C [36] was 5.71%.
With `Nc1ccn(C2OC(CO)C(O)C2(F)F)c(=O)n1` (stereo unspecified) + CCn1c(-c2cccnc2C(C)OC)c2c3cc(ccc31)N1CCOC(CC(NC(=O)C(C(C)C)N(C)C(=O)C3(F)CCN(C(=O)C#CC(C)(C)N(C)C)CC3)C(=O)N3CCCC(N3)C(=O)OCC(C)(C)C2)C1 the pIC50 (second compound 0.000949 µM) was > 8.50, the pIC50 (second compound 0.003 µM) was > 8.50 and the pIC50 (second compound 0.00949 µM) was > 8.50. The pIC50 (second compound 0.03 µM) was > 8.50, the pIC50 (second compound 0.0949 µM) was > 8.50 and the pIC50 (second compound 0.3 µM) was > 8.50. For the same molecule, the viability, T/C (second compound 0.000949 µM, first compound 0.00316 µM) was 11.4%, the viability, T/C (second compound 0.000949 µM, first compound 0.01 µM) was 1.89% and the viability, T/C [1] was 1.33%. It also gave a viability, T/C [2] of 1.32%, a viability, T/C [3] of 1.35% and a viability, T/C [4] of 1.46%. The viability, T/C (second compound 0.003 µM, first compound 0.00316 µM) was 12.7%, the viability, T/C (second compound 0.003 µM, first compound 0.01 µM) was 1.78% and the viability, T/C [7] was 1.61%. For the same molecule, the viability, T/C [8] was 1.5%, the viability, T/C [9] was 1.63% and the viability, T/C [10] was 2.39%. The viability, T/C (second compound 0.00949 µM, first compound 0.00316 µM) was 14.5%, the viability, T/C (second compound 0.00949 µM, first compound 0.01 µM) was 1.69% and the viability, T/C [13] was 2.29%. The viability, T/C [14] was 1.8%, the viability, T/C [15] was 1.79% and the viability, T/C [16] was 1.41%. For the same molecule, the viability, T/C (second compound 0.03 µM, first compound 0.00316 µM) was 12.3%, the viability, T/C (second compound 0.03 µM, first compound 0.01 µM) was 1.86% and the viability, T/C [19] was 1.31%. For the same molecule, the viability, T/C [20] was 1.39%, the viability, T/C [21] was 1.75% and the viability, T/C [22] was 1.29%. For the same molecule, the viability, T/C (second compound 0.0949 µM, first compound 0.00316 µM) was 7.86%, the viability, T/C (second compound 0.0949 µM, first compound 0.01 µM) was 1.71% and the viability, T/C [25] was 1.74%. It also gave a viability, T/C [26] of 1.51%, a viability, T/C [27] of 1.72% and a viability, T/C [28] of 1.81%. It also gave a viability, T/C (second compound 0.3 µM, first compound 0.00316 µM) of 7.88%, a viability, T/C (second compound 0.3 µM, first compound 0.01 µM) of 1.67% and a viability, T/C [31] of 1.78%. It also gave a viability, T/C [32] of 1.28%, a viability, T/C [33] of 1.59% and a viability, T/C [34] of 1.54%.
